In ChEMBL document CHEMBL5303573, “Mapping human microbiome drug metabolism by gut bacteria and their genes” (Nature, 2019):

Experiments:
[1] = The drug is tested on Bacteroides finegoldii strain: DSM17565 for biotransformation. The drug concentrations were measured before and after a 12-h incubation by liquid-chromatography-coupled mass spectrometry (LC–MS); details: 2 µM
[2] = The drug is tested on Anaerotruncus colihominis strain: DSM17241 for biotransformation. The drug concentrations were measured before and after a 12-h incubation by liquid-chromatography-coupled mass spectrometry (LC–MS); details: 2 µM
[3] = The drug is tested on Bacteroides uniformis strain: ATCC8492 for biotransformation. The drug concentrations were measured before and after a 12-h incubation by liquid-chromatography-coupled mass spectrometry (LC–MS); details: 2 µM
[4] = The drug is tested on Anaerococcus hydrogenalis strain: DSM7454 for biotransformation. The drug concentrations were measured before and after a 12-h incubation by liquid-chromatography-coupled mass spectrometry (LC–MS); details: 2 µM
[5] = The drug is tested on Clostridium hathewayi strain: DSM13479 for biotransformation. The drug concentrations were measured before and after a 12-h incubation by liquid-chromatography-coupled mass spectrometry (LC–MS); details: hungatella hathewayi, 2 µM
[6] = The drug is tested on Clostridium spiroforme strain: DSM1552 for biotransformation. The drug concentrations were measured before and after a 12-h incubation by liquid-chromatography-coupled mass spectrometry (LC–MS); details: thomasclavelia spiroformis, 2 µM
[7] = anaerostipes sp., 12 h, 2 µM
Description: The drug is tested on Anaerostipes sp. strain: fecal isolate for biotransformation. The drug concentrations were measured before and after a 12-h incubation by liquid-chromatography-coupled mass spectrometry (LC–MS)

[8] = The drug is tested on Clostridium sp. strain: fecal isolate for biotransformation. The drug concentrations were measured before and after a 12-h incubation by liquid-chromatography-coupled mass spectrometry (LC–MS); details: 2 µM
[9] = bacteroides fragilis, 12 h, 2 µM
Description: The drug is tested on Bacteroides fragilis strain: DS-208 for biotransformation. The drug concentrations were measured before and after a 12-h incubation by liquid-chromatography-coupled mass spectrometry (LC–MS)

Row | Compound | Bacterial Biotransformation [1] | Bacterial Biotransformation [2] | Bacterial Biotransformation [3] | Bacterial Biotransformation [4] | Bacterial Biotransformation [5] | Bacterial Biotransformation [6] | Bacterial Biotransformation [7] | Bacterial Biotransformation [8] | Bacterial Biotransformation [9]
1 | CCCC(=O)Nc1ccc(OCC(O)CNC(C)C)c(C(C)=O)c1 (stereo not given) [ACEBUTOLOL] | Compound NOT metabolized | Compound NOT metabolized | Compound NOT metabolized | Compound NOT metabolized | Compound NOT metabolized | Compound NOT metabolized | Compound NOT metabolized |  | 
2 | CC(C)NCC(O)COc1ccc(CC(N)=O)cc1 (stereo not given) [ATENOLOL] | Compound NOT metabolized | Compound NOT metabolized |  | Compound NOT metabolized |  | Compound NOT metabolized | Compound NOT metabolized | Compound NOT metabolized | 
3 | CC(C)NCC(O)COc1ccc(CCOCC2CC2)cc1 (stereo not given) [BETAXOLOL] | Compound NOT metabolized | Compound NOT metabolized | Compound NOT metabolized | Compound NOT metabolized | Compound NOT metabolized | Compound NOT metabolized | Compound NOT metabolized | Compound NOT metabolized | Compound NOT metabolized
4 | CC(NC(C)(C)C)C(=O)c1cccc(Cl)c1 (stereo not given) [BUPROPION] | Compound NOT metabolized | Compound NOT metabolized | Compound NOT metabolized | Compound NOT metabolized | Compound NOT metabolized | Compound NOT metabolized | Compound NOT metabolized | Compound NOT metabolized | Compound NOT metabolized
5 | COc1ccccc1OCCNCC(O)COc1cccc2[nH]c3ccccc3c12 (stereo not given) [CARVEDILOL] | Compound metabolized | Compound metabolized | Compound metabolized | Compound metabolized | Compound metabolized | Compound metabolized | Compound metabolized | Compound NOT metabolized | Compound metabolized
6 | O=C(O)COCCN1CCN(C(c2ccccc2)c2ccc(Cl)cc2)CC1 (stereo not given) [CETIRIZINE] | Compound metabolized | Compound NOT metabolized | Compound metabolized | Compound NOT metabolized | Compound NOT metabolized |  | Compound NOT metabolized |  | Compound metabolized
7 | CN/C(=N/CCSCc1nc[nH]c1C)NC#N [CIMETIDINE] |  | Compound NOT metabolized | Compound metabolized | Compound NOT metabolized | Compound NOT metabolized | Compound NOT metabolized | Compound NOT metabolized |  | 
8 | COC(=O)[C@H](c1ccccc1Cl)N1CCc2sccc2C1.O=S(=O)(O)O [CLOPIDOGREL BISULFATE] |  | Compound NOT metabolized | Compound metabolized | Compound NOT metabolized |  | Compound NOT metabolized | Compound NOT metabolized | Compound metabolized | Compound metabolized
9 | CN1CCN(C2=Nc3cc(Cl)ccc3Nc3ccccc32)CC1 [CLOZAPINE] | Compound NOT metabolized |  | Compound NOT metabolized | Compound NOT metabolized | Compound NOT metabolized | Compound NOT metabolized | Compound NOT metabolized | Compound NOT metabolized | Compound NOT metabolized
10 | CN(C)CCC=C1c2ccccc2C=Cc2ccccc21 [CYCLOBENZAPRINE] | Compound NOT metabolized | Compound NOT metabolized |  | Compound NOT metabolized | Compound NOT metabolized | Compound NOT metabolized | Compound NOT metabolized | Compound metabolized | Compound NOT metabolized
11 | O=P1(N(CCCl)CCCl)NCCCO1 (stereo not given) [CYCLOPHOSPHAMIDE ANHYDROUS] | Compound NOT metabolized |  | Compound NOT metabolized | Compound NOT metabolized |  | Compound NOT metabolized |  | Compound NOT metabolized | Compound NOT metabolized
12 | CNC(=C[N+](=O)[O-])NCCSCc1csc(CN(C)C)n1 [NIZATIDINE] | Compound metabolized | Compound metabolized | Compound NOT metabolized | Compound metabolized |  |  | Compound metabolized | Compound metabolized | Compound metabolized
13 | CCCc1nc(C(C)(C)O)c(C(=O)OCc2oc(=O)oc2C)n1Cc1ccc(-c2ccccc2-c2nnn[nH]2)cc1 [OLMESARTAN MEDOXOMIL] | Compound metabolized | Compound metabolized | Compound metabolized | Compound metabolized |  |  | Compound metabolized | Compound metabolized | Compound metabolized
14 | COc1ccc2[nH]c([S+]([O-])Cc3ncc(C)c(OC)c3C)nc2c1 (stereo not given) [OMEPRAZOLE] | Compound metabolized | Compound metabolized | Compound metabolized | Compound metabolized |  |  | Compound metabolized | Compound metabolized | Compound metabolized
15 | Cc1nc2n(c(=O)c1CCN1CCC(c3noc4cc(F)ccc34)CC1)CCCC2O (stereo not given) [PALIPERIDONE] | Compound metabolized | Compound metabolized | Compound metabolized | Compound metabolized |  |  | Compound metabolized | Compound metabolized | Compound metabolized
16 | CC(C(=O)O)c1ccc2c(c1)Cc1cccnc1O2 (stereo not given) [PRANOPROFEN] | Compound metabolized | Compound metabolized | Compound metabolized | Compound NOT metabolized |  |  | Compound NOT metabolized | Compound metabolized | Compound metabolized
17 | CCOc1cc(CC(=O)N[C@@H](CC(C)C)c2ccccc2N2CCCCC2)ccc1C(=O)O [REPAGLINIDE] | Compound metabolized | Compound NOT metabolized | Compound metabolized | Compound NOT metabolized | Compound NOT metabolized | Compound NOT metabolized | Compound NOT metabolized | Compound NOT metabolized | 
